These results are taken from ChEMBL document CHEMBL3132769, “Fragment growing to retain or alter the selectivity of anchored kinase hinge-binding fragments” (Medchemcomm, 2014).

Assay [1] concerns the target Serine/threonine-protein kinase PAK 2 (Homo sapiens) (UniProt Q13177). Put plainly: Inhibition of human truncated PAK2 expressed in Escherichia coli cell assessed as substrate phosphorylation using fluorescence-labelled peptides as substrate at 2 uM after 90 mins by microfluidic peptide phosphorylation assay.
Assay [2] concerns the target Mitogen-activated protein kinase 3 (Homo sapiens) (UniProt P27361). Nature of the assay: Inhibition of human full length ERK1 expressed in Escherichia coli cell assessed as substrate phosphorylation using fluorescence-labelled peptides as substrate at 0.1 uM after 90 mins by microfluidic peptide phosphorylation assay.
Assay [3] concerns the target T1, Testis-specific serine/threonine-protein kinase 2 (Homo sapiens) (UniProt Q96PF2).
T1 sequence (whole entry): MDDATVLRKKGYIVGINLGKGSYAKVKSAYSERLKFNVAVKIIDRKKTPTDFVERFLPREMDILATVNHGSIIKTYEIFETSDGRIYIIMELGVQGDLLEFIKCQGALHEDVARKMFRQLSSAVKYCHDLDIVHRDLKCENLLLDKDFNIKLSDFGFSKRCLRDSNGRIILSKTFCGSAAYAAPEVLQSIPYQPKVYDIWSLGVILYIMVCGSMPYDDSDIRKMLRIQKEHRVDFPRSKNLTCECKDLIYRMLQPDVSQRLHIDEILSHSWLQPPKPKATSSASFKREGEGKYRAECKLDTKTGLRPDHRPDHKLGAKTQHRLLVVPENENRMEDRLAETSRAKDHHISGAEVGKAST
The following applies: 0.1 uM.
Description: Inhibition of human full length TSSK2 expressed in baculovirus assessed as substrate phosphorylation using fluorescence-labelled peptides as substrate at 0.1 uM after 90 mins by microfluidic peptide phosphorylation assay

Assay [4] deals with T2, Aurora kinase C (Homo sapiens) (UniProt Q9UQB9).
T2 sequence (whole entry): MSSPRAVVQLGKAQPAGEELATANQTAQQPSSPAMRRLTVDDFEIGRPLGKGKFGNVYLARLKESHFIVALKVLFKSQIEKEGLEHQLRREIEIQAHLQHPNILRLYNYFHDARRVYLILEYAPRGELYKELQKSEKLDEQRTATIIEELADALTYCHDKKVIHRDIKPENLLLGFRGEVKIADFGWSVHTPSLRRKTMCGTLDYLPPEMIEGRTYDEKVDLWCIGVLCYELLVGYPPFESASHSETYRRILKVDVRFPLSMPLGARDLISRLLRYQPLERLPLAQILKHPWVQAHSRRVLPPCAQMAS
Put plainly: Inhibition of human full length AurC expressed in baculovirus assessed as substrate phosphorylation using fluorescence-labelled peptides as substrate at 0.2 uM after 90 mins by microfluidic peptide phosphorylation assay.

Assay [5] deals with Rho-associated protein kinase 2 (Homo sapiens) (UniProt O75116). Put plainly: Inhibition of human ROCK2 catalytic domain expressed in baculovirus assessed as substrate phosphorylation using fluorescence-labelled peptides as substrate at 0.06 uM after 90 mins by microfluidic peptide phosphorylation assay.
In assay [6] the target is Platelet-derived growth factor receptor alpha (Homo sapiens) (UniProt P16234). Nature of the assay: Inhibition of human PDGFR alpha catalytic domain expressed in baculovirus assessed as substrate phosphorylation using fluorescence-labelled peptides as substrate at 0.06 uM after 90 mins by microfluidic peptide phosphorylation assay.
Assay [7] deals with Serine/threonine-protein kinase PAK 2 (Homo sapiens) (UniProt Q13177). Put plainly: Inhibition of human truncated PAK2 expressed in Escherichia coli cell assessed as substrate phosphorylation using fluorescence-labelled peptides as substrate at 9 uM after 90 mins by microfluidic peptide phosphorylation assay.
The target in assay [8] is Fibroblast growth factor receptor 1 (Homo sapiens) (UniProt P11362). Put plainly: Inhibition of human FGFR1 catalytic domain expressed in baculovirus assessed as substrate phosphorylation using fluorescence-labelled peptides as substrate at 95 uM after 90 mins by microfluidic peptide phosphorylation assay.
The target in assay [9] is Protein kinase C alpha type (Homo sapiens) (UniProt P17252). Nature of the assay: Inhibition of human truncated PKC alpha expressed in baculovirus assessed as substrate phosphorylation using fluorescence-labelled peptides as substrate at 70 uM after 90 mins by microfluidic peptide phosphorylation assay.
Assay [10] has as its target Tyrosine-protein kinase Fer (Homo sapiens) (UniProt P16591). Put plainly: Inhibition of human FER catalytic domain expressed in baculovirus assessed as substrate phosphorylation using fluorescence-labelled peptides as substrate at 70 uM after 90 mins by microfluidic peptide phosphorylation assay.
For assay [11], the target named is Serine/threonine-protein kinase PAK 2 (Homo sapiens) (UniProt Q13177). Nature of the assay: Inhibition of human truncated PAK2 expressed in Escherichia coli cell assessed as substrate phosphorylation using fluorescence-labelled peptides as substrate at […] after 90 mins by microfluidic peptide phosphorylation assay.
Assay [12] concerns the target Ribosomal protein S6 kinase alpha-3 (Homo sapiens) (UniProt P51812). Nature of the assay: Inhibition of human full length RSK2 expressed in baculovirus assessed as substrate phosphorylation using fluorescence-labelled peptides as substrate at […] after 90 mins by microfluidic peptide phosphorylation assay.
Assay [13] concerns the target T3, Serine/threonine-protein kinase Sgk2 (Homo sapiens) (UniProt Q9HBY8).
T3 sequence (whole entry): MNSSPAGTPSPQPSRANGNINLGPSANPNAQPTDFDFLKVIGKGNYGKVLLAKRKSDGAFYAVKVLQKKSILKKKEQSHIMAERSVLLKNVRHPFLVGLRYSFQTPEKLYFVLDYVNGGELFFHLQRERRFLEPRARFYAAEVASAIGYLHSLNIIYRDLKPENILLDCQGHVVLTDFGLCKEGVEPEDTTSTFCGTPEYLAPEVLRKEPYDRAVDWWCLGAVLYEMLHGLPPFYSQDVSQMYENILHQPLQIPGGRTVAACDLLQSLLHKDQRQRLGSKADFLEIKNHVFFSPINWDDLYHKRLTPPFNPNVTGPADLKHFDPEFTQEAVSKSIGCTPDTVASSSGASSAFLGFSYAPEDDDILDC
Nature of the assay: Inhibition of human full length SGK2 expressed in baculovirus assessed as substrate phosphorylation using fluorescence-labelled peptides as substrate at 420 uM after 90 mins by microfluidic peptide phosphorylation assay.

For assay [14], the target named is Mitogen-activated protein kinase 1 (Homo sapiens) (UniProt P28482). Put plainly: Inhibition of human full length ERK2 expressed in Escherichia coli cell assessed as substrate phosphorylation using fluorescence-labelled peptides as substrate at 1000 uM after 90 mins by microfluidic peptide phosphorylation assay.
Mitogen-activated protein kinase 1 (Homo sapiens), sequence (P28482 whole entry): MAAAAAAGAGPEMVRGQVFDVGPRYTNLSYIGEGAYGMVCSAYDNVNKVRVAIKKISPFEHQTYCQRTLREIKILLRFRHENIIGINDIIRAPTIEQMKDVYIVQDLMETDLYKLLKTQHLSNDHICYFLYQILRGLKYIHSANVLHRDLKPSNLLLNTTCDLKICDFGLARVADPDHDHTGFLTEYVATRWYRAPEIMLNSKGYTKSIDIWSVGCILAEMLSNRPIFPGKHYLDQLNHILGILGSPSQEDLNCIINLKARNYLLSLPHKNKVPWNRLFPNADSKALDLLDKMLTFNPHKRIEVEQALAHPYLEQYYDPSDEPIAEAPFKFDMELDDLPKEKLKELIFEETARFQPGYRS

Serine/threonine-protein kinase PAK 2 (Homo sapiens), sequence (Q13177 whole entry, the tested form may be a part): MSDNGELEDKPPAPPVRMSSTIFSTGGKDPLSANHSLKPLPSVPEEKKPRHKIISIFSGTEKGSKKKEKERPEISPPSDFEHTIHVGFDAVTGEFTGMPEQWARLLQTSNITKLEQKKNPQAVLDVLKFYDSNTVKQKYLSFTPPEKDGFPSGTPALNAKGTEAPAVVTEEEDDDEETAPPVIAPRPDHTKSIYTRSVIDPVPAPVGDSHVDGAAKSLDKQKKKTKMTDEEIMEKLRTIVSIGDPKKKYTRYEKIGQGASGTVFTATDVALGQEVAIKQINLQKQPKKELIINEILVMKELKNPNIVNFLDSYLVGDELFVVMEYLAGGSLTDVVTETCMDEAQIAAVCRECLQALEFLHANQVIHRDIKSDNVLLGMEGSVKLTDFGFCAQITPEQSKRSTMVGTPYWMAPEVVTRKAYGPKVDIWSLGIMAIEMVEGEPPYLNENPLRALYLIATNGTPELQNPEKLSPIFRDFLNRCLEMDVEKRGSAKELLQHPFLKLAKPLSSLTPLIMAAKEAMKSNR
Fibroblast growth factor receptor 1 (Homo sapiens), sequence (P11362 22-822 limits assumed): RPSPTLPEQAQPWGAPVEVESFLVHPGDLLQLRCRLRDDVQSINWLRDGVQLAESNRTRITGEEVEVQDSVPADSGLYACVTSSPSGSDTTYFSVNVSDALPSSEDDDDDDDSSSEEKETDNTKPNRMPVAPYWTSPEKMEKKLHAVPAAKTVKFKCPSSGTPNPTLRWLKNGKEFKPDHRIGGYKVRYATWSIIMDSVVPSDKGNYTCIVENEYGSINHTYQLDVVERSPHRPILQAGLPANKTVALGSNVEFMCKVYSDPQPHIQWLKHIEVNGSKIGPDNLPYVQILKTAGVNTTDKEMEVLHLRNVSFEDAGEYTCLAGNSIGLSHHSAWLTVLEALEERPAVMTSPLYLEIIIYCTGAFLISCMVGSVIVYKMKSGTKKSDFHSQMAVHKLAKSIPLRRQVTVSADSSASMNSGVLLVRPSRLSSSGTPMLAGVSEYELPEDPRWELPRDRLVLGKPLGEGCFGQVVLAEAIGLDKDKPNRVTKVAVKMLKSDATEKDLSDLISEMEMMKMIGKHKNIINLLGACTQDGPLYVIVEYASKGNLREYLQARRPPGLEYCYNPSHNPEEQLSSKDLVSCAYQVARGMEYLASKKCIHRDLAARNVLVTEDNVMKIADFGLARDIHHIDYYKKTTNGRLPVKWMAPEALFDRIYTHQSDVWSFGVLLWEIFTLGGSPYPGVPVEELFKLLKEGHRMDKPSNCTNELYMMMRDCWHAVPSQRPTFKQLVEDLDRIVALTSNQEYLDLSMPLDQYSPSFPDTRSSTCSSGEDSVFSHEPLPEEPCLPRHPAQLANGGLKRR
Ribosomal protein S6 kinase alpha-3 (Homo sapiens), sequence (P51812 whole entry): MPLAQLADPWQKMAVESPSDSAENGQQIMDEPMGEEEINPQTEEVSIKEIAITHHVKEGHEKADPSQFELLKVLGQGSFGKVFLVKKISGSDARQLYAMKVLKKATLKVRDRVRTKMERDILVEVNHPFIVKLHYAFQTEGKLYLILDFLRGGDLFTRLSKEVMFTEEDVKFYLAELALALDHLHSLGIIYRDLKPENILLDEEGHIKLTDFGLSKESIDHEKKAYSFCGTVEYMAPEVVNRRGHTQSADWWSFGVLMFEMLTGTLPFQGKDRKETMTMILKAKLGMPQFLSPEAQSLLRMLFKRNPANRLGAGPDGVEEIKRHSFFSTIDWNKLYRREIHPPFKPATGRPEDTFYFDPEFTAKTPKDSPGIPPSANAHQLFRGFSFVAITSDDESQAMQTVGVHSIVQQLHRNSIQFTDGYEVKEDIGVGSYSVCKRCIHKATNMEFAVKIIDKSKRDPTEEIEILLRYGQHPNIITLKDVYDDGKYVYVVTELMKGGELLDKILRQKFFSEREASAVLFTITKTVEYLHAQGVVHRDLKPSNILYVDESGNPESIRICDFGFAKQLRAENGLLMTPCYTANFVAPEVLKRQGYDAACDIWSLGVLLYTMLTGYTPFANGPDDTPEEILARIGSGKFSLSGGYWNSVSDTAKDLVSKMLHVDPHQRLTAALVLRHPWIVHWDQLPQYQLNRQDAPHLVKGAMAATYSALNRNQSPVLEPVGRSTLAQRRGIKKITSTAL
Tyrosine-protein kinase Fer (Homo sapiens), sequence (P16591 whole entry, looked up, the tested form may be a part): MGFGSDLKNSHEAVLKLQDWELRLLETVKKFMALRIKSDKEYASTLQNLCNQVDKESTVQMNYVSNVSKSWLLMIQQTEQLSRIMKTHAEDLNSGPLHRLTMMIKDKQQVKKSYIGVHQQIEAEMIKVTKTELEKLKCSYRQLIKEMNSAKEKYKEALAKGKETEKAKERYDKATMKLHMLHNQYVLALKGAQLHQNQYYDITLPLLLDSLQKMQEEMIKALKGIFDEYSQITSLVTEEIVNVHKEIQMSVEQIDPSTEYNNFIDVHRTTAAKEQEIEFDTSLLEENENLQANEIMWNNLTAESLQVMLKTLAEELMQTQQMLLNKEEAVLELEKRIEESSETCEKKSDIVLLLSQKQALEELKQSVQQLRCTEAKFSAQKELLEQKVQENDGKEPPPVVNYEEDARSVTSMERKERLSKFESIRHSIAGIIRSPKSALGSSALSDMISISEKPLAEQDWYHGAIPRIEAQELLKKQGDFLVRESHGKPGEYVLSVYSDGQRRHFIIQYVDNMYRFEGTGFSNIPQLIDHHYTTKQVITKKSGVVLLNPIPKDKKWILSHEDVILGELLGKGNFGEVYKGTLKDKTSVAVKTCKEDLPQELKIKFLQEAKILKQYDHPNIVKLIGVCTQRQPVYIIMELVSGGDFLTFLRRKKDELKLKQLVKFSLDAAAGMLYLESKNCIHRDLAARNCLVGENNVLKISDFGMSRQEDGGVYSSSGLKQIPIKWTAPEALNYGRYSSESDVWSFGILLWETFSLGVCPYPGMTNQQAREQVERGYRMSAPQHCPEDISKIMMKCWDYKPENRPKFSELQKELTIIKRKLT
Mitogen-activated protein kinase 3 (Homo sapiens), sequence (P27361 whole entry): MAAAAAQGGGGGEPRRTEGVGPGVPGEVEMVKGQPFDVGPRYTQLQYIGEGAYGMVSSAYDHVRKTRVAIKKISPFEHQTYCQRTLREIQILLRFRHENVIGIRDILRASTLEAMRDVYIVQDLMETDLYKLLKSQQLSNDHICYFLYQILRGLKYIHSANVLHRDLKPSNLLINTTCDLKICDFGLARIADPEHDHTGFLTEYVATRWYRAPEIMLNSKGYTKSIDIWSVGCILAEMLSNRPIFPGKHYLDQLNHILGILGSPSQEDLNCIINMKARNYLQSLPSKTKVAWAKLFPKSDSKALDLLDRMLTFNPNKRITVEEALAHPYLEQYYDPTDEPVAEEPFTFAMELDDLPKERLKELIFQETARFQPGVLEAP

Turning to `NC1CCN(c2ncnc3[nH]ccc23)CC1`, the inhibition (in general, how much of the control response was suppressed) in assay [1] came to 3.5%.

As to `C[C@H](CN(C)C)Oc1nc(Nc2cc3cccc(Cl)c3cn2)cnc1C#N`, the inhibition in assay [2] was determined as 1%; in assay [3], 0%. As to `Clc1ccc(C2(c3ccc(-c4ncnc5[nH]cnc45)cc3)CCNCC2)cc1`, the inhibition in assay [4] is 73.5%.

As to `NC1(Cc2ccc(Cl)cc2)CCN(c2ncnc3[nH]ccc23)CC1`, the inhibition in [5] and in assay [6] was 0% each time. Take `NCC1CN(c2ncnc3[nH]c4cnccc4c23)CCO1` (centres undefined): in assay [7], the inhibition was determined as 3%. Consider `NCCc1ccc(-c2ncnc3[nH]cnc23)cc1`, for which the inhibition in assay [8] was 72%. On to `CNCc1ccc(-c2ncnc3[nH]cnc23)cc1`, for which the inhibition amounted to 56% in assay [9] and 30% in [10].

Take `COC(=O)c1cnc(Nc2cnc(C#N)cn2)cc1NCC1CCNCC1`: the inhibition was determined as 1.5% in assay [11] and 42% in assay [12]. With `c1nc(N2CCOCC2)c2nc[nH]c2n1`, the inhibition in assay [13] was determined as 76.5%. Take `c1cnc2[nH]ccc2c1`: the inhibition in [14] was 23.5%.
